Experimental findings from ChEMBL document CHEMBL4339244, “Clavariopsins C-I, Antifungal Cyclic Depsipeptides from the Aquatic Hyphomycete Clavariopsis aquatica” (J Nat Prod, 2019) are described below.

Active and inactive are the calls of the source. No cut-off for these calls is given here.

What is called IC50 is the concentration needed to halve the response being measured.

One test concerns Alternaria alternata. Briefly: Antifungal activity against Alternaria alternata assessed as inhibition of microbial growth by measuring minimum inhibitory dose per disc inducing visually distinct inhibition zone between the paper disk and colony front by paper disk based assay. The format is functional.
The subject of a further test is HeLa S3. Briefly: Cytotoxicity in human HeLaS3 cells assessed as reduction in cell viability incubated for 48 hrs by MTT assay. The format is functional, cell-based. The settings on record: HeLa S3, 48 h. A general note: Tetrazolium assays rely on reduction of a dye to a coloured formazan, in cell work by metabolically active cells.
Another test deals with Botrytis cinerea. Put plainly: Antifungal activity against Botrytis cinerea assessed as inhibition of microbial growth by measuring minimum inhibitory dose per disc inducing visually distinct inhibition zone between the paper disk and colony front by paper disk based assay. The format is functional.
For test [1], the system named is Colletotrichum orbiculare. Briefly: Antifungal activity against Colletotrichum orbiculare assessed as inhibition of microbial growth by measuring minimum inhibitory dose per disc inducing visually distinct inhibition zone between the paper disk and colony front by paper disk based assay. The format is functional, organism-based.
For a further test, the system named is Fusarium oxysporum. Briefly: Antifungal activity against Fusarium oxysporum assessed as inhibition of microbial growth by measuring minimum inhibitory dose per disc inducing visually distinct inhibition zone between the paper disk and colony front by paper disk based assay. The format is functional, organism-based.
The subject of test [2] is Aspergillus niger. Briefly: Induction of hyphal malformation in Aspergillus niger assessed as minimum effective dose per disc results in obvious morphological changes incubated for 16 hrs by phase contrast microscopy. The format is functional.
For test [3], the system named is Aspergillus niger. Briefly: Antifungal activity against Aspergillus niger assessed as inhibition of microbial growth by measuring minimum inhibitory dose per disc inducing visually distinct inhibition zone between the paper disk and colony front by paper disk based assay. The format is functional, organism-based.
Another test has as its system Pyricularia oryzae. Put plainly: Antifungal activity against Magnaporthe oryzae assessed as inhibition of microbial growth by measuring minimum inhibitory dose per disc inducing visually distinct inhibition zone between the paper disk and colony front by paper disk based assay. The format is functional, organism-based.

As for `CC[C@H](C)[C@H]1C(=O)NCC(=O)N(C)[C@@H](C(C)C)C(=O)N[C@@H](Cc2ccc(OC)cc2)C(=O)O[C@H](C(C)C)C(=O)N2CCCC[C@H]2C(=O)N(C)[C@@H](C(C)C)C(=O)N[C@@H](CC(C)C)C(=O)N(C)[C@@H](CC(=O)O)C(=O)N(C)[C@@H]([C@@H](C)CC)C(=O)N1C`, the results for the MID in the test on Alternaria alternata and in the test with Botrytis cinerea were 0.03 to 0.3 µg and 0.01 to 0.3 µg, respectively. In addition, in the test on HeLa S3, the IC50 was above 10 µM. The inhibition entry (in test [1]; in the test with Fusarium oxysporum; with Aspergillus niger [3]; in the test with Pyricularia oryzae) was “Active” each time. Further, in the test on Aspergillus niger [2], the MED is 3 µg.
In the case of `CC[C@H](C)[C@H]1C(=O)NCC(=O)N(C)[C@@H](C(C)C)C(=O)N[C@@H](Cc2ccc(OC)cc2)C(=O)O[C@H](C(C)C)C(=O)N2CCCC[C@H]2C(=O)N[C@@H](C(C)C)C(=O)N[C@@H](C(C)C)C(=O)N(C)[C@@H](CC(=O)O)C(=O)N(C)[C@@H]([C@@H](C)CC)C(=O)N1C`, the MID lay in the range of 0.03 to 0.3 µg in the test on Alternaria alternata and 0.01 to 0.3 µg with Botrytis cinerea. Besides, the IC50 in the test on HeLa S3 is above 10 µM. Besides, the inhibition result (in test [1]; with Fusarium oxysporum; in the test on Aspergillus niger [3]; in the test on Pyricularia oryzae) was “Active” throughout. Moreover, in the test on Aspergillus niger [2], the MED came out at 3 µg.
`CC[C@H](C)[C@H]1C(=O)NCC(=O)N(C)[C@@H](C(C)C)C(=O)N[C@@H](Cc2ccc(OC)cc2)C(=O)O[C@H](C(C)C)C(=O)N2CCCC[C@H]2C(=O)N(C)[C@@H](C(C)C)C(=O)N[C@@H](C(C)C)C(=O)N(C)[C@@H](CC(=O)O)C(=O)N(C)[C@@H](CC(C)C)C(=O)N1C`: the MID fell in the range of 0.03 to 0.3 µg in the test on Alternaria alternata and 0.01 to 0.3 µg in the test with Botrytis cinerea. Further, the IC50 with HeLa S3 is above 10 µM. The inhibition entry (in test [1]; in the test on Fusarium oxysporum; in the test with Aspergillus niger [3]; in the test with Pyricularia oryzae) was “Active” throughout. Moreover, the MED in the test on Aspergillus niger [2] is 0.3 µg.
Consider `CC[C@H](C)[C@H]1C(=O)NCC(=O)N(C)[C@@H](C(C)C)C(=O)N[C@@H](Cc2ccc(OC)cc2)C(=O)O[C@H](C(C)C)C(=O)N2CCCC[C@H]2C(=O)N(C)[C@@H](C(C)C)C(=O)N[C@@H](C(C)C)C(=O)N(C)[C@@H](CC(=O)O)C(=O)N(C)[C@@H]([C@@H](C)CC)C(=O)N1C`, for which the figures for the MID with Alternaria alternata and with Botrytis cinerea were 0.01 µg and 0.01 to 0.3 µg, respectively. For the same compound, in the test on HeLa S3, the IC50 is above 10 µM. The inhibition entry (in test [1]; with Fusarium oxysporum; in the test on Aspergillus niger [3]; in the test with Pyricularia oryzae) was “Active” each time. Further, the MED in the test with Aspergillus niger [2] came to 0.3 µg.
`CC[C@H](C)[C@H]1C(=O)N(C)[C@@H](CC(C)C)C(=O)NCC(=O)N(C)[C@@H](C(C)C)C(=O)N[C@@H](Cc2ccc(OC)cc2)C(=O)O[C@H](C(C)C)C(=O)N2CCCC[C@H]2C(=O)N(C)[C@@H](C(C)C)C(=O)N[C@@H](C(C)C)C(=O)N(C)[C@@H](CC(=O)O)C(=O)N1C`: the results for the MID with Alternaria alternata and in the test with Botrytis cinerea were 0.03 to 0.3 µg and 0.01 to 0.3 µg, respectively. Besides, the IC50 in the test with HeLa S3 is above 10 µM. Also, the inhibition result (in test [1]; in the test on Fusarium oxysporum; in the test with Aspergillus niger [3]; in the test on Pyricularia oryzae) was “Active” each time. The MED with Aspergillus niger [2] was 0.3 µg.
Consider `CC[C@H](C)[C@H]1C(=O)N(C)[C@@H](C(C)C)C(=O)NCC(=O)N(C)[C@@H](C(C)C)C(=O)N[C@@H](Cc2ccc(OC)cc2)C(=O)O[C@H](C(C)C)C(=O)N2CCCC[C@H]2C(=O)N(C)[C@@H](C(C)C)C(=O)N[C@@H](C(C)C)C(=O)N(C)[C@@H](CC(=O)O)C(=O)N1C`, for which the MID was in the range of 0.03 to 0.3 µg in the test with Alternaria alternata and 0.01 to 0.3 µg in the test on Botrytis cinerea. For the same compound, in the test on HeLa S3, the IC50 was above 10 µM. Further, the inhibition result (in test [1]; in the test on Fusarium oxysporum; with Aspergillus niger [3]; with Pyricularia oryzae) was “Active” throughout. Also, the MED in the test on Aspergillus niger [2] turned out to be 0.3 µg.
In the case of `CC[C@H](C)[C@H]1C(=O)NCC(=O)N(C)[C@@H](C(C)C)C(=O)N[C@@H](Cc2ccc(OC)cc2)C(=O)O[C@H](C(C)C)C(=O)N2CCC[C@H]2C(=O)N(C)[C@@H](C(C)C)C(=O)N[C@@H](C(C)C)C(=O)N(C)[C@@H](CC(=O)O)C(=O)N(C)[C@@H]([C@@H](C)CC)C(=O)N1C`, the MID in the test on Alternaria alternata was in the range of 0.03 to 0.3 µg; with Botrytis cinerea, 0.01 to 0.3 µg. Besides, the IC50 in the test with HeLa S3 is above 10 µM. Also, the inhibition result (in test [1]; in the test on Fusarium oxysporum; in the test with Aspergillus niger [3]; with Pyricularia oryzae) was “Active” each time. The MED in the test on Aspergillus niger [2] stood at 0.3 µg.
Regarding `CC[C@H](C)[C@H]1C(=O)NCC(=O)N(C)[C@@H](C(C)C)C(=O)N[C@@H](Cc2ccc(OC)cc2)C(=O)O[C@H](C(C)C)C(=O)N2CCCC[C@H]2C(=O)N(C)[C@@H](C(C)C)C(=O)N[C@@H](C(C)C)C(=O)N(C)[C@@H](CC(=O)O)C(=O)N(C)[C@@H](C(C)C)C(=O)N1C`, the figures for the MID with Alternaria alternata and with Botrytis cinerea were 0.01 µg and 0.01 to 0.3 µg, respectively. For the same compound, the IC50 in the test on HeLa S3 is above 10 µM. Besides, the inhibition entry (in test [1]; in the test with Fusarium oxysporum; in the test with Aspergillus niger [3]; with Pyricularia oryzae) was “Active” in each case. Besides, the MED in the test on Aspergillus niger [2] amounted to 0.3 µg.
As to `CC[C@H](C)[C@@H]1NC(=O)[C@H]([C@@H](C)CC)N(C)C(=O)[C@H](CC(=O)O)N(C)C(=O)[C@H](C(C)C)NC(=O)[C@H](C(C)C)N(C)C(=O)[C@@H]2CCCCN2C(=O)[C@@H](C(C)C)OC(=O)[C@H](Cc2ccc(OC)cc2)NC(=O)[C@H](C(C)C)N(C)C(=O)CNC1=O`, the figures for the MID with Alternaria alternata and with Botrytis cinerea were 0.01 µg and 0.01 to 0.3 µg, respectively. Besides, in the test with HeLa S3, the half-inhibitory concentration (IC50) is above 10 µM. For the same compound, the inhibition entry (in test [1]; with Fusarium oxysporum; in the test on Aspergillus niger [3]; in the test on Pyricularia oryzae) was “Active” each time. Also, in the test with Aspergillus niger [2], the MED worked out at 0.3 µg.
